Measured values published in ChEMBL document CHEMBL1144148, “DNA polymerase beta inhibitors from Baeckea gunniana” (J Nat Prod, 1999).

How the values were obtained:
DNA polymerase beta [1] = target: T1, DNA polymerase beta (Rattus norvegicus, UniProt P06766); assay: Inhibition of rat DNA polymerase beta in presence of BSA
DNA polymerase beta [2] = target: T1, DNA polymerase beta; assay: Inhibition of rat DNA polymerase beta in absence of BSA
[3] = target: DNA polymerase beta (Rattus norvegicus) (UniProt P06766); assay: Inhibition of rat DNA polymerase beta at 50 ug/mL
[4] = target: DNA polymerase beta (Rattus norvegicus) (UniProt P06766); assay: Inhibition of rat DNA polymerase beta at 10 ug/mL

SMILES	IC50 (DNA polymerase beta [1]) [µM]	IC50 (DNA polymerase beta [2]) [µM]	inhibition [3] [%]	inhibition [4] [%]
C=C1CC[C@]2(C(=O)O)CC[C@]3(C)[C@H](CC[C@@H]4[C@@]5(C)CC[C@H](O)C(C)(C)[C@@H]5CC[C@]43C)C2=C1C	5.6	2.5	82	68
C=C1[C@H]2C3=CC[C@@H]4[C@@]5(C)CC[C@H](O)C(C)(C)[C@@H]5CC[C@@]4(C)[C@]3(C)CC[C@@]2(C(=O)O)CC[C@H]1C	5.3	3.2	80	65
CC1(C)CC[C@]2(C(=O)O)CC[C@]3(C)C(=CC[C@@H]4[C@@]5(C)CC[C@H](O)C(C)(C)[C@@H]5CC[C@]43C)[C@@H]2C1 [OLEANOLIC_ACID]	7.5	3.7	90	42
C[C@H]1[C@H](C)CC[C@]2(C(=O)O)CC[C@]3(C)C(=CC[C@@H]4[C@@]5(C)CC[C@H](O)C(C)(C)[C@@H]5CC[C@]43C)[C@H]12 [URSOLIC ACID]	8.5	4.8	90	55
